This is an account of results in patent US20150065717A1, “NIPECOTIC ACID DERIVATIVE AND USE THEREOF FOR MEDICAL PURPOSES” (Toray Industries, Inc., priority 2012, published 2015).

Structures are written as SMILES.

The target of one assay is T1, recombinant human sEH (Homo sapiens, UniProt P34913).
T1 construct: purchased Cayman
T1 sequence (P34913 1-555): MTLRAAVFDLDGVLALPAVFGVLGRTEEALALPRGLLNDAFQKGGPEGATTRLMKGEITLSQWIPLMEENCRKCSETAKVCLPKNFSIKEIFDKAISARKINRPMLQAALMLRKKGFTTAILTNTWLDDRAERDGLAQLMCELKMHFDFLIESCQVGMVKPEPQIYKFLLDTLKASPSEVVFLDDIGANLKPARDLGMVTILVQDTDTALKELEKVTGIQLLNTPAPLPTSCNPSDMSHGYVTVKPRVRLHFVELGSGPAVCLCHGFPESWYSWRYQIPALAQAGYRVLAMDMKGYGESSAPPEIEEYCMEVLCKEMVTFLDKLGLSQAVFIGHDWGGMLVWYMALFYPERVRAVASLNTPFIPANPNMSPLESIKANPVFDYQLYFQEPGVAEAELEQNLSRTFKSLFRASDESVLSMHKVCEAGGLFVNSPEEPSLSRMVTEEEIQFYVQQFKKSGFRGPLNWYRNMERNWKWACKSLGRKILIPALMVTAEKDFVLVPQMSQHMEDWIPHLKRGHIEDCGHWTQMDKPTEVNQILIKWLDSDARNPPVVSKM
Briefly: In vitro evaluation test for sEH inhibitory activity. The class given is biochemical. To be noted: recombinant human sEH 0.026 μg/mL, fluorescent substrate 6.25 μmol/L, room temperature. Here is the method: According to the method described in a known document (Analytical Biochemistry, 2005, vol. 343, p. 66-75), the sEH inhibitory activity of each nipecotic acid derivative (I) or a pharmaceutically acceptable salt thereof was evaluated using human sEH.
A recombinant human sEH (final concentration, 0.026 μg/mL; Cayman) was incubated with each test compound in 25 mM Bis-Tris-HCl buffer (pH 7.0) supplemented with 0.1 mg/mL BSA at room temperature for 30 minutes. Thereafter, cyano(6-methoxynaphthalen-2-yl)methyl 2-(3-phenyloxiran-2-yl)acetate (final concentration, 6.25 μmol/L; Cayman) was added thereto as a fluorescent substrate, and the resulting mixture was incubated at room temperature for 20 minutes. The reaction was then stopped by addition of ZnSO4 (final concentration, 0.2 mol/L), and the fluorescence intensity was measured (Fusion α (Packard); Excitation: 330 nm, Emission:485 nm).
The fluorescence intensity observed with addition of neither sEH nor a test compound was regarded as the sEH enzymatic reaction rate of 0%, and the fluorescence intensity observed with addition of sEH but without addition of a test compound was regarded as the sEH enzymatic reaction rate of 100%. From the obtained fluorescence intensity, the sEH enzymatic reaction rate of each test compound was calculated to determine IC50.
What is called IC50 is the concentration needed to halve the response being measured. For `CC(=O)N[C@@H](C(=O)N1CCC[C@@H](C(=O)NCc2ccc(C#N)cc2OC(F)(F)F)C1)C(C)C` [Example Compound 11, (R)-1-((R)-2-acetamido-3-methylbutanoyl)-N-(4-cyano-2-(trifluoromethoxy)benzyl)piperidine-3-carboxamide], the IC50 was 0.5 nM.

Consider `CCC(=O)N[C@@H](C(=O)N1CCC[C@@H](C(=O)NCc2ccc(C#N)cc2OC(F)(F)F)C1)C(C)(C)O` [Example Compound 31, (R)—N-(4-cyano-2-(trifluoromethoxy)benzyl)-1-((R)-3-hydroxy-3-methyl-2-propionamidobutanoyl)piperidine-3-carboxamide], for which the IC50 amounted to 1.3 nM.

For the compound `CS(=O)(=O)NC1(C(=O)N2CCC[C@@H](C(=O)NCc3ccc(C#N)cc3OC(F)(F)F)C2)CCOCC1` [Example Compound 28, (R)—N-(4-cyano-2-(trifluoromethoxy)benzyl)-1-(4-(methylsulfonamido)tetrahydro-2H-pyran-4-carbonyl)piperidine-3-carboxamide], the IC50 amounted to 2.3 nM.

For `CC(C)(C)C(=O)NC1(C(=O)N2CCC[C@@H](C(=O)NCc3ccc(C#N)cc3OC(F)(F)F)C2)CC1` [Example Compound 27, (R)—N-(4-cyano-2-(trifluoromethoxy)benzyl)-1-(1-pivalamidocyclopropanecarbonyl)piperidine-3-carboxamide], the IC50 was 2.2 nM.

Take `CC(C)[C@@H](NS(C)(=O)=O)C(=O)N1CCC[C@@H](C(=O)NCc2ccc(C#N)cc2OC(F)(F)F)C1` [Example Compound 12, (R)—N-(4-cyano-2-(trifluoromethoxy)benzyl)-1-((R)-3-methyl-2-(methylsulfonamido)butanoyl)piperidine-3-carboxamide]: the half-maximal inhibitory concentration (IC50) was 0.3 nM.

With `CCS(=O)(=O)NC1(C(=O)N2CCC[C@@H](C(=O)NCc3ccc(C#N)cc3OC(F)(F)F)C2)CC1` [Example Compound 13, (R)—N-(4-cyano-2-(trifluoromethoxy)benzyl)-1-(1-(ethylsulfonamido)cyclopropanecarbonyl)piperidine-3-carboxamide], the IC50 was 1.4 nM.

With `CCCC(=O)NC1(C(=O)N2CCC[C@@H](C(=O)NCc3ccc(C#N)cc3OC(F)(F)F)C2)CCC1` [Example Compound 33, (R)-1-(1-butylamidocyclobutanecarbonyl)-N-(4-cyano-2-(trifluoromethoxy)benzyl)piperidine-3-carboxamide], the IC50 amounted to 2.4 nM.

Turning to `CC(=O)NCC(=O)N1CCC[C@@H](C(=O)NCc2ccc(C#N)cc2OC(F)(F)F)C1` [Comparative Example Compound 2, (R)-1-(2-acetamidoacetyl)-N-(4-cyano-2-(trifluoromethoxy)benzyl)piperidine-3-carboxamide, reference compound], the IC50 was above 30 nM.

Turning to `CC(C)(O)[C@@H](NS(C)(=O)=O)C(=O)N1CCC[C@@H](C(=O)NCc2ccc(Cl)cc2Cl)C1` [Example Compound 41, (R)—N-(2,4-dichlorobenzyl)-1-((R)-3-hydroxy-3-methyl-2-(methylsulfonamido)butanoyl)piperidine-3-carboxamide], the IC50 is 1.1 nM.

In the case of `CC(C)(CO)C(=O)N1CCC[C@@H](C(=O)NCc2ccc(C#N)cc2OC(F)(F)F)C1` [Example Compound 19, (R)—N-(4-cyano-2-(trifluoromethoxy)benzyl)-1-(3-hydroxy-2,2-dimethylpropanoyl)piperidine-3-carboxamide], the IC50 was determined as 1.3 nM.

Take `CC(C)(NS(C)(=O)=O)C(=O)N1CCC[C@@H](C(=O)NCc2ccc(C(N)=O)cc2OC(F)(F)F)C1` [Example Compound 14, (R)—N-(4-carbamoyl-2-(trifluoromethoxy)benzyl)-1-(2-methyl-2-(methylsulfonamido)propanoyl)piperidine-3-carboxamide]: the IC50 came out at 1.5 nM.

As to `N#Cc1ccc(CNC(=O)[C@@H]2CCCN(C(=O)C3(NC(=O)CC4CC4)CC3)C2)c(OC(F)(F)F)c1` [Example Compound 35, (R)—N-(4-cyano-2-(trifluoromethoxy)benzyl)-1-(1-(2-cyclopropylacetamido)cyclopropanecarbonyl)piperidine-3-carboxamide], the IC50 stood at 6.7 nM.

In the case of `CCC(=O)N[C@@H](C(=O)N1CCC[C@@H](C(=O)NCc2ccc(Cl)cc2Cl)C1)C(C)(C)O` [Example Compound 40, (R)—N-(2,4-dichlorobenzyl)-1-((R)-3-hydroxy-3-methyl-2-propionamidobutanoyl)piperidine-3-carboxamide], the IC50 was determined as 0.7 nM.

For the compound `CC[C@@H](O)C(=O)N1CCC[C@@H](C(=O)NCc2ccc(C#N)cc2OC(F)(F)F)C1` [Example Compound 43, (R)—N-(4-cyano-2-(trifluoromethoxy)benzyl)-1-((R)-2-hydroxybutanoyl)piperidine-3-carboxamide], the IC50 was 1.2 nM.

For the compound `N#Cc1ccc(CNC(=O)[C@@H]2CCCN(C(=O)C3(NC(=O)C4CC4)CCC3)C2)c(OC(F)(F)F)c1` [Example Compound 29, (R)—N-(4-cyano-2-(trifluoromethoxy)benzyl)-1-(1-(cyclopropanecarboxamide)cyclobutanecarbonyl)piperidine-3-carboxamide], the IC50 was 1.7 nM.

Regarding `CC(C)(NS(C)(=O)=O)C(=O)N1CCC[C@@H](C(=O)NCc2ccc(Cl)cc2OCC(F)(F)F)C1` [Example Compound 10, (R)—N-(4-chloro-2-(2,2,2-trifluoroethoxy)benzyl)-1-(2-methyl-2-(methylsulfonamido)propanoyl)piperidine-3-carboxamide], the IC50 came out at 2.6 nM.

Another assay concerns rat diabetic nephropathy model. Description: Pharmacological effect in rat diabetic nephropathy model (streptozotocin). The class given is in vivo, rat (spontaneously hypertensive rat). To be noted: Day 27 after streptozotocin; orally once per day for 20 days from Day 8 (Example Compound 1 10 mg/kg, imidapril 2 mg/kg); mean±standard error, n=6. Here is the method: Example Compound 1 was administered to a rat diabetic nephropathy model (International Journal of Molecular Medicine, 2007, vol. 19, p. 571-579; Hypertension, 1998, vol. 32, p. 778-785), and the therapeutic effect of the nipecotic acid derivative (I) or a pharmaceutically acceptable salt thereof on chronic renal disease with diabetic nephropathy was evaluated.
Rats (spontaneously hypertensive rat, male, 12 or 13 weeks old; Charles River Laboratories Japan, Inc.) with diabetic nephropathy induced by administration of an aqueous streptozotocin (Enzo Life Sciences, Inc.) solution (40 mg/kg) into the tail vein were provided as “group with induced diabetic nephropathy”. On the other hand, rats to which water for injection was similarly administered were provided as “untreated group”.
Six weeks after administration of streptozotocin, urine was collected using a metabolic cage at room temperature for 24 hours. The urinary albumin concentration in the collected urine was measured by the ELISA method. From the urinary albumin concentration and the urine weight, the amount of urinary albumin excretion was calculated.
To rats showing pathological conditions of diabetic nephropathy in the group with induced diabetic nephropathy, Example Compound 1 (10 mg/kg) or a positive control compound imidapril (2 mg/kg) was orally administered once per day for 20 days from Day 8 after the administration of streptozotocin. […]
After the last administration of the test substance on Day 27 after administration of streptozotocin, urine was collected using a metabolic cage at room temperature for 24 hours. The urinary albumin concentration in the collected urine was measured by the ELISA method. From the urinary albumin concentration and the urine weight, the amount of urinary albumin excretion was calculated. In addition, on Day 18 after administration of streptozotocin, the systemic systolic pressure was measured by the tail-cuff method. On Day 29 after administration of streptozotocin, blood was collected from the abdominal aorta of each rat, and the plasma glucose concentration was measured. […]
As for `CCOC(=O)[C@H](CCc1ccccc1)N[C@@H](C)C(=O)N1C(=O)N(C)C[C@H]1C(=O)O` [imidapril, reference compound], the “amount of urinary albumin excretion” value worked out at 5.66 ± 0.91 mg/day.
